Laboratory results taken from PubChem BioAssay AID1963973 (Molecular Pharmacology Branch, DTP, NCI, 2024).
Values joined by “and” are separate entries in the source; they are usually repeats but may differ in a detail not shown here. Identical values can stand only once.

System: 883617-216-R-J1-PDC tumor spheroids, viability
Assay: Anticancer human tumor 883617-216-R-J1-PDC patient-derived bladder carcinoma cell line growth inhibition [PI3K]
Settings: spheroids with HUVEC and MSC; for viability, T/C: stronger effect = lower value
Outline: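 Combination activity was assessed by viability in multicellular tumor spheroids carrying HUVEC and MSC components. Agents were tested with PI3K inhibitors from a Cmax-based top dose (or 10 microM) downward in half-log increments.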

[1] = curve of first compound, second compound 0.0316 µM
[2] = curve of first compound, second compound 0.1 µM
[3] = curve of first compound, second compound 0.316 µM
[4] = curve of first compound, second compound 1 µM
[5] = second compound 0.0316 µM, first compound 0.0316 µM
[6] = second compound 0.0316 µM, first compound 0.1 µM
[7] = second compound 0.0316 µM, first compound 0.316 µM
[8] = second compound 0.0316 µM, first compound 1 µM
[9] = second compound 0.0316 µM, first compound 3.16 µM
[10] = second compound 0.0316 µM, first compound 10 µM
[11] = second compound 0.1 µM, first compound 0.0316 µM
[12] = second compound 0.1 µM, first compound 0.1 µM
[13] = second compound 0.1 µM, first compound 0.316 µM
[14] = second compound 0.1 µM, first compound 1 µM
[15] = second compound 0.1 µM, first compound 3.16 µM
[16] = second compound 0.1 µM, first compound 10 µM
[17] = second compound 0.316 µM, first compound 0.0316 µM
[18] = second compound 0.316 µM, first compound 0.1 µM
[19] = second compound 0.316 µM, first compound 0.316 µM
[20] = second compound 0.316 µM, first compound 1 µM
[21] = second compound 0.316 µM, first compound 3.16 µM
[22] = second compound 0.316 µM, first compound 10 µM
[23] = second compound 1 µM, first compound 0.0316 µM
[24] = second compound 1 µM, first compound 0.1 µM
[25] = second compound 1 µM, first compound 0.316 µM
[26] = second compound 1 µM, first compound 1 µM
[27] = second compound 1 µM, first compound 3.16 µM
[28] = second compound 1 µM, first compound 10 µM
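Also: spheroids exposed to agents for 7 days before the viability read.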

With `Cn1nccc1Nc1nccc(-c2ccn(C(CO)c3ccc(Cl)c(F)c3)c(=O)c2)n1` (stereo not drawn) the viability, T/C (compound 0.0316 µM) was 93.7% [middle of 4 runs], the viability, T/C (compound 0.1 µM) was 86.5% [middle of 4 runs] and the viability, T/C (compound 0.316 µM) was 87.2% [middle of 4 runs]. The viability, T/C (compound 1 µM) was 79.5% [middle of 4 runs], the viability, T/C (compound 3.16 µM) was 65.8% [middle of 4 runs] and the viability, T/C (compound 10 µM) was 58.5% [middle of 4 runs]. The IC50 (curve of compound) was > 10000 nM and 8220 nM.

In the case of `CC1(C)CCC(Nc2ncc(C(F)(F)F)c(-c3c[nH]c4c(P(C)(C)=O)c(C#N)ccc34)n2)CN1` (stereo not drawn) + CC(Nc1ncnc2nc[nH]c12)c1cc2cccc(Cl)c2c(=O)n1-c1ccccc1, the IC50 [1] is reported as less than 31.6 nM, the IC50 [2] is reported as less than 31.6 nM and the IC50 [3] is reported as less than 31.6 nM. The IC50 [4] was less than 31.6 nM, the IC50 (curve of first compound, second compound 3.16 µM) was less than 31.6 nM and the IC50 (curve of first compound, second compound 10 µM) was less than 31.6 nM. It also gave a viability, T/C [5] of 37.5%, a viability, T/C [6] of 37.6% and a viability, T/C [7] of 36.1%. The viability, T/C [8] was 31.7%, the viability, T/C [9] was 14.5% and the viability, T/C [10] was 0.45%. The viability, T/C [11] was 36.2%, the viability, T/C [12] was 30.1% and the viability, T/C [13] was 32.6%. For the same compound, the viability, T/C [14] was 30.9%, the viability, T/C [15] was 13.9% and the viability, T/C [16] was 1.12%. For the same compound, the viability, T/C [17] was 33.4%, the viability, T/C [18] was 35.1% and the viability, T/C [19] was 31.1%. The viability, T/C [20] was 26.5%, the viability, T/C [21] was 13.9% and the viability, T/C [22] was 1.62%. For the same compound, the viability, T/C [23] was 33.6%, the viability, T/C [24] was 33.7% and the viability, T/C [25] was 28.8%. The viability, T/C [26] was 28.1%, the viability, T/C [27] was 11.7% and the viability, T/C [28] was 0.54%. It also gave a viability, T/C (second compound 3.16 µM, first compound 0.0316 µM) of 29.7%, a viability, T/C (second compound 3.16 µM, first compound 0.1 µM) of 27.3% and a viability, T/C (second compound 3.16 µM, first compound 0.316 µM) of 28.8%. The viability, T/C (second compound 3.16 µM, first compound 1 µM) was 24.7%, the viability, T/C (second compound 3.16 µM, first compound 3.16 µM) was 15% and the viability, T/C (second compound 3.16 µM, first compound 10 µM) was 1.34%. It also gave a viability, T/C (second compound 10 µM, first compound 0.0316 µM) of 25.7%, a viability, T/C (second compound 10 µM, first compound 0.1 µM) of 20.8% and a viability, T/C (second compound 10 µM, first compound 0.316 µM) of 21.8%. For the same compound, the viability, T/C (second compound 10 µM, first compound 1 µM) was 20.9%, the viability, T/C (second compound 10 µM, first compound 3.16 µM) was 19.2% and the viability, T/C (second compound 10 µM, first compound 10 µM) was 0.84%.

`Cn1ncnc1[C@H]1c2n[nH]c(=O)c3cc(F)cc(c23)N[C@@H]1c1ccc(F)cc1` was tested, and the viability, T/C (compound 0.000316 µM) was 92.5% [middle of 4 runs], the viability, T/C (compound 0.001 µM) was 88.8% (2×) and 83.1% and 89.6% and the viability, T/C (compound 0.00316 µM) was 91.6% [middle of 4 runs]. The viability, T/C (compound 0.01 µM) was 84.4% [middle of 4 runs], the viability, T/C (compound 0.0316 µM) was 75.7% [middle of 4 runs] and the viability, T/C (compound 0.1 µM) was 58.2% [middle of 4 runs]. For the same compound, the IC50 (curve of compound) was greater than 100 nM.

`CCCS(=O)(=O)Nc1ccc(F)c(C(=O)c2c[nH]c3ncc(-c4ccc(Cl)cc4)cc23)c1F` + CC(Nc1ccc2c(c1)OCCn1cc(N3C(=O)OCC3C(F)F)nc1-2)C(N)=O showed an IC50 (curve of first compound, second compound 0.00316 µM) of 4590 nM, an IC50 (curve of first compound, second compound 0.01 µM) of 4710 nM and an IC50 [1] of 4240 nM. The IC50 [2] was less than 31.6 nM, the IC50 [3] was less than 31.6 nM and the IC50 [4] was less than 31.6 nM. For the same compound, the viability, T/C (second compound 0.00316 µM, first compound 0.0316 µM) was 91.2%, the viability, T/C (second compound 0.00316 µM, first compound 0.1 µM) was 90.9% and the viability, T/C (second compound 0.00316 µM, first compound 0.316 µM) was 89%. It also gave a viability, T/C (second compound 0.00316 µM, first compound 1 µM) of 100%, a viability, T/C (second compound 0.00316 µM, first compound 3.16 µM) of 70.2% and a viability, T/C (second compound 0.00316 µM, first compound 10 µM) of 8.07%. It also gave a viability, T/C (second compound 0.01 µM, first compound 0.0316 µM) of 87.3%, a viability, T/C (second compound 0.01 µM, first compound 0.1 µM) of 90% and a viability, T/C (second compound 0.01 µM, first compound 0.316 µM) of 89.5%. For the same compound, the viability, T/C (second compound 0.01 µM, first compound 1 µM) was 93.9%, the viability, T/C (second compound 0.01 µM, first compound 3.16 µM) was 70.3% and the viability, T/C (second compound 0.01 µM, first compound 10 µM) was 11.9%. The viability, T/C [5] was 68.5%, the viability, T/C [6] was 64.3% and the viability, T/C [7] was 64.4%. For the same compound, the viability, T/C [8] was 66.8%, the viability, T/C [9] was 63.7% and the viability, T/C [10] was 9.98%. It also gave a viability, T/C [11] of 36.1%, a viability, T/C [12] of 42.6% and a viability, T/C [13] of 43.9%. For the same compound, the viability, T/C [14] was 48.2%, the viability, T/C [15] was 38.7% and the viability, T/C [16] was 12.2%. It also gave a viability, T/C [17] of 29%, a viability, T/C [18] of 23.8% and a viability, T/C [19] of 28.5%. It also gave a viability, T/C [20] of 28.2%, a viability, T/C [21] of 26.6% and a viability, T/C [22] of 11%. The viability, T/C [23] was 15.2%, the viability, T/C [24] was 15% and the viability, T/C [25] was 17%. It also gave a viability, T/C [26] of 23%, a viability, T/C [27] of 20.7% and a viability, T/C [28] of 8.33%.
